Experiments:
[1] = test system: Burkholderia glumae; test: Test Example 6: onset of infection on rice, test liquid sprayed after infection; format: in vivo; conditions: for percentage of flower clusters with score 0: score 0 = less than 0.1% diseased; for percentage of flower clusters with score 0 / percentage of flower clusters with score 1 / percentage of flower clusters with score 2 / percentage of flower clusters with score 3 / percentage of flower clusters with score 4 / percentage of flower clusters with score 5: rice, 7 days; for percentage of flower clusters with score 1: score 1 = 0.1-20% diseased; for percentage of flower clusters with score 2: score 2 = 20-40% diseased; for percentage of flower clusters with score 3: score 3 = 40-60% diseased; for percentage of flower clusters with score 4: score 4 = 60-80% diseased; for percentage of flower clusters with score 5: score 5 = 80-100% diseased
Procedure: A test liquid and a culture solution for infection were prepared in the same manner as in Test Example 5, and the culture solution for infection was sprayed onto Korean rice (Milyang 23) raised in a hothouse until the flowering stage. One hour after the spraying, each test liquid (10 mL) was sprayed onto the rice. After cultivation for seven days, the onset of Burkholderia glumae infection on the rice was evaluated in the same manner as in Test Example 4. The same evaluation was conducted as the comparative test in the same manner except that water was used instead of the test liquid. Further, the same evaluation was conducted to serve as a blank using water instead of both the test liquid and the culture solution for infection.

[2] = test system: Burkholderia glumae; test: Test Example 1: production of QS signal molecules C6-HSL and C8-HSL (TLC, CV026 violacein detection); format: cell-based
Procedure: Burkholderia glumae was inoculated into an LB culture medium (produced by BD) (Difco LB Broth: containing tryptone (10.0 g), yeast extract (5.0 g), and sodium chloride (10.0 g)), and cultured at 37° C. overnight. The thus-cultured broth was subjected to bacterial collection using a centrifuge, washed with an LB culture medium twice using a fresh LB culture medium each time. […] Each of the broths was filtered by a membrane filter (0.22 μm). 0.5 mL of ethyl acetate was added to 0.5 mL of supernate from which bacteria were removed, and then the quorum sensing (QS) signal molecules were extracted using ethyl acetate. The thus-obtained ethyl acetate layer was concentrated under reduced pressure, and the residue was re-dissolved in 20 μL of methanol, producing a test liquid.
The test liquid (1 μL) was spotted on TLC to separate C6-HSL and C8-HSL, which are QS signal molecules, under the condition of developing solvent: methanol/water=70/30. After the development, a TLC plate was well dried and a culture solution containing QS signal molecule detection bacteria (Chromobacterium violaceum CV026 strain) that had been pre-cultured in an LB culture medium and agar was applied to the TLC plate, followed by the detection of C6-HSL and C8-HSL. Chromobacterium violaceum is known as a bacterium that produces purple pigment (violacein) using the QS; therefore, the CV026 strain can be used to detect QS signal molecules (Microbiology, (1997), 143, 3703-3711, (2004), 54(4), 921-934, (2007), 64(1), 165-179). After applying the detected bacteria to the TLC plate, the TLC plate was subjected to overnight cultivation at 28° C. and then detection using violacein. For quantitative determination, calibration curves showing the violacein production from C6-HSL and C8-HSL that had been chemically synthesized were obtained. From the calibration curves, the production amounts of the QS signal molecules of each compound were obtained.

[3] = test system: Burkholderia glumae; test: Test Example 9: amount of toxoflavin produced in culture solution, with comparative compound; format: cell-based; conditions: 0, 20, 40, 60, 80 or 100 μM, shake culturing 20 hours, FIG. 6
Procedure: Burkholderia glumae was inoculated into an LB culture medium (produced by BD (Difco LB Broth: containing tryptone (10.0 g), yeast extract (5.0 g), and sodium chloride (10.0 g)), and cultured at 37° C. overnight. The thus-obtained culture solution was subjected to bacterial collection using a centrifuge, and washed with an LB culture medium twice using a fresh LB culture medium each time. To the bacterial cell a fresh LB culture medium was added, and then Compound (1) produced in Production Example 1 was added thereto in such a manner that its final concentration became a predetermined value (i.e., 0, 20, 40, 60, 80 or 100 μM), followed by shake culturing for 20 hours. The amount of toxoflavin produced by the bacterial cell in the culture solution was obtained by the following procedure.
Each culture solution was filtered by a 0.22-μm membrane filter, and 1 mL of the filtrate was isolated. One mL of chloroform was added to the filtrate, followed by extraction. The thus-obtained chloroform layer was concentrated under reduced pressure, and an 80% (V/V) an aqueous methanol solution was added to and dissolved in the residue. The absorbance (at 260 nm) of the solution was measured, and the toxin doses were calculated from the calibration curve, which was obtained using chemically synthesized standard toxin. […]

[4] = 50 μM sprayed 1 h after infection
[5] = 100 μM sprayed 1 h after infection
[6] = 200 μM sprayed 1 h after infection
[7] = 40 μM compound, 12 hours shake culturing
[8] = 40 μM compound, 24 hours shake culturing
[9] = 60 μM compound, 12 hours shake culturing
[10] = 60 μM compound, 24 hours shake culturing

For `CCCc1cc(=O)n2cccc(O)c2n1` [Compound (1), 2-n-propyl-9-hydroxy-4H-pyrid[1,2-a]pyrimidin-4-one], the “percentage of flower clusters with score 0” value [1, 4] was 88%, the “percentage of flower clusters with score 0” value [1, 5] was 85% and the “percentage of flower clusters with score 0” value [1, 6] was 89%. The “percentage of flower clusters with score 1” value [1, 4] was 2%, the “percentage of flower clusters with score 1” value [1, 5] was 5% and the “percentage of flower clusters with score 1” value [1, 6] was 3%. For the same compound, the “percentage of flower clusters with score 2” value [1, 4] was 4%, the “percentage of flower clusters with score 2” value [1, 5] was 3% and the “percentage of flower clusters with score 2” value [1, 6] was 3%. For the same compound, the “percentage of flower clusters with score 3” value [1, 4] was 2%, the “percentage of flower clusters with score 3” value [1, 5] was 3% and the “percentage of flower clusters with score 3” value [1, 6] was 2%. For the same compound, the “percentage of flower clusters with score 4” value [1, 4] was 2%, the “percentage of flower clusters with score 4” value [1, 5] was 2% and the “percentage of flower clusters with score 4” value [1, 6] was 2%. For the same compound, the “percentage of flower clusters with score 5” value [1, 4] was 2%, the “percentage of flower clusters with score 5” value [1, 5] was 2% and the “percentage of flower clusters with score 5” value [1, 6] was 1%. For the same compound, the “onset of Burkholderia glumae on rice” value ([1]; test liquid 50, 100 or 200 μM sprayed after the culture solution for infection) was “prevented”, the C6-HSL [2, 7] was 163 ng/mL and the C8-HSL [2, 7] was 14 µg/mL. It also gave a C6-HSL [2, 8] of 0 ng/mL, a C8-HSL [2, 8] of 0 µg/mL and a C6-HSL [2, 9] of 167 ng/mL. It also gave a C8-HSL [2, 9] of 13 µg/mL, a C6-HSL [2, 10] of 0 ng/mL and a C8-HSL [2, 10] of 0 µg/mL. The “toxin doses produced by bacteria (toxoflavin)” value [3] was “remarkably decreased”.

From patent US8507674B2, “Quorum sensing inhibitor” (The University of Tokyo, priority 2007, dated 2013)
